The text below walks through data of ChEMBL document CHEMBL4184210, “Optimization of novel monobactams with activity against carbapenem-resistant Enterobacteriaceae - Identification of LYS228” (Bioorg Med Chem Lett, 2018).

In series [1] the test system is Escherichia coli. In words: microbe, parasite or virus in culture.
Description: Antimicrobial activity against Escherichia coli expressing beta-lactamase AmpC by CLSI broth microdilution method
The test system of series [2] is Escherichia coli. Briefly: microbe, parasite or virus in culture. The source holds these as a separate data set.
Description: Antimicrobial activity against wild type Escherichia coli by CLSI broth microdilution method
The test system of series [3] is Escherichia coli. Briefly: microbe, parasite or virus in culture. The source holds these as a separate data set.
Description: Antimicrobial activity against Escherichia coli expressing beta-lactamase SHV-12 by CLSI broth microdilution method
Series [4] deals with Escherichia coli. In words: Antimicrobial activity against Escherichia coli expressing beta-lactamase KPC-2 by CLSI broth microdilution method. Type of series: functional. For orientation: Dilution methods test growth across graded concentrations, often in twofold steps.
Series [5] deals with Escherichia coli. In words: Antimicrobial activity against Escherichia coli expressing beta-lactamase NDM-1 by CLSI broth microdilution method. Type of series: functional.
Series [6] in a line: Chemical stability in pH 7.4 potassium phosphate buffer assessed as half life for compound hydrolysis at 37 degC by UPLC and mass spectrometry. Type of series: physicochemical.
Series [7] concerns Escherichia coli. In words: microbe, parasite or virus in culture. This is another data set of the same source.
Description: Antimicrobial activity against Escherichia coli expressing beta-lactamase TEM-10 by CLSI broth microdilution method
In series [8] the test system is Escherichia coli. In words: microbe, parasite or virus in culture. This is another data set of the same source.
Description: Antimicrobial activity against Escherichia coli expressing beta-lactamase CTXM-15 by CLSI broth microdilution method
Series [9] relates to Escherichia coli. In words: microbe, parasite or virus in culture. This is another data set of the same source.
Description: Antimicrobial activity against Escherichia coli expressing beta-lactamase Oxa-48 by CLSI broth microdilution method
Series [10] concerns Escherichia coli. In words: microbe, parasite or virus in culture. The source holds these as a separate data set.
Description: Antimicrobial activity against Escherichia coli expressing beta-lactamase CMY-2 by CLSI broth microdilution method

Values after ≈ are worked out from the molar mass of the structure shown.

As to `CC(C)(O/N=C(\C(=O)N[C@@H]1C(=O)N(S(=O)(=O)O)[C@@H]1Cn1ccc(N)n1)c1csc(N)n1)C(=O)O` (stereo in doubt), the MIC in series [1], in series [2], in series [3], in series [4], in series [5] and in series [7] was greater than 64 µg/mL each time. In series [8], this compound gave an MIC greater than 64 µg/mL. For the same compound, the half-life (in general, the time needed for the level to fall by half in the phase considered) in [6] was 3.5 h.

As to `CC(C)(O/N=C(\C(=O)N[C@@H]1C(=O)N(S(=O)(=O)O)[C@@H]1CN1CCCCC1=O)c1csc(N)n1)C(=O)O` (stereo in doubt), the MIC in series [1] was determined as 16 µg/mL (≈ 30 µM); in [2], 4 µg/mL (≈ 7.51 µM); in [3], 4 µg/mL (≈ 7.51 µM); in [4] it was 8 µg/mL (≈ 15 µM); in series [5] it was 8 µg/mL (≈ 15 µM); in series [7], 4 µg/mL (≈ 7.51 µM). Moreover, the MIC in [8] was found to be 8 µg/mL (≈ 15 µM). For the same compound, in [6], the half-life was 214 h.

Consider `CC(C)(O/N=C(\C(=O)N[C@@H]1C(=O)N(S(=O)(=O)O)[C@@H]1Cn1cnnc1)c1csc(N)n1)C(=O)O` (stereo in doubt), for which the MIC amounted to 2 µg/mL (≈ 3.98 µM) in series [1]; 1 µg/mL (≈ 1.99 µM) in series [2]; 16 µg/mL (≈ 31.8 µM) in [3]; 16 µg/mL (≈ 31.8 µM) in [4]; 1 µg/mL (≈ 1.99 µM) in series [5]; 32 µg/mL (≈ 63.7 µM) in [7]. The MIC in series [8] stood at 1 µg/mL (≈ 1.99 µM). Further, the half-life in [6] is 113 h.

Regarding `CC(C)(O/N=C(\C(=O)N[C@@H]1C(=O)N(S(=O)(=O)O)[C@@H]1CN1CCC1=O)c1csc(N)n1)C(=O)O` (stereo in doubt), the MIC came to 64 µg/mL (≈ 127 µM) in series [1]; 2 µg/mL (≈ 3.96 µM) in series [2]; 8 µg/mL (≈ 15.9 µM) in series [3]; 4 µg/mL (≈ 7.93 µM) in series [4]; 2 µg/mL (≈ 3.96 µM) in [5]; 16 µg/mL (≈ 31.7 µM) in series [7]. Besides, the MIC in series [8] is 4 µg/mL (≈ 7.93 µM). Further, the half-life in series [6] was greater than 1000 h.

Take `CC(C)(O/N=C(/C(=O)N[C@@H]1C(=O)N(S(=O)(=O)O)[C@@H]1CF)c1csc(N)n1)C(=O)O` (stereo in doubt): the MIC amounted to 4 µg/mL (≈ 8.82 µM) in series [1]; 0.125 µg/mL (≈ 0.276 µM) in series [2]; 32 µg/mL (≈ 70.6 µM) in series [3]; 1 µg/mL (≈ 2.21 µM) in series [4]; 0.125 µg/mL (≈ 0.276 µM) in series [5]; 0.06 µg/mL (≈ 0.132 µM) in series [9]. This compound also displayed an MIC in series [8] of 0.25 µg/mL (≈ 0.551 µM). Further, the half-life in series [6] is 990 h.

Take `CC(C)(O/N=C(\C(=O)N[C@@H]1C(=O)N(S(=O)(=O)O)[C@@H]1Cn1ccnn1)c1csc(N)n1)C(=O)O` (stereo in doubt): the MIC is 2 to 4 µg/mL (≈ 3.98 to 7.96 µM) in [1]; 0.5 µg/mL (≈ 0.995 µM) in [2]; 4 µg/mL (≈ 7.96 µM) in [3]; 8 µg/mL (≈ 15.9 µM) in series [10]; 2 µg/mL (≈ 3.98 µM) in [4]; 0.5 µg/mL (≈ 0.995 µM) in series [5]. The MIC in [7] amounted to 2 µg/mL (≈ 3.98 µM); in [8], 1 µg/mL (≈ 1.99 µM). The half-life in series [6] is 257 h.

Regarding `CC(C)(O/N=C(\C(=O)N[C@@H]1C(=O)N(S(=O)(=O)O)[C@@H]1Cn1nccn1)c1csc(N)n1)C(=O)O` (stereo in doubt), the MIC in series [1] stood at 8 µg/mL (≈ 15.9 µM); in series [2], 0.5 µg/mL (≈ 0.995 µM); in [3], 1 µg/mL (≈ 1.99 µM); in [4], 1 µg/mL (≈ 1.99 µM); in series [5], 0.5 µg/mL (≈ 0.995 µM); in series [7] it was 2 µg/mL (≈ 3.98 µM). For the same compound, in series [8], the MIC worked out at 0.5 µg/mL (≈ 0.995 µM). Besides, the half-life in series [6] is 978 h.

As for `CC(C)(O/N=C(\C(=O)N[C@@H]1C(=O)N(S(=O)(=O)O)[C@@H]1CN1CCCC1=O)c1csc(N)n1)C(=O)O` (stereo in doubt), the MIC in series [1] came out at 16 µg/mL (≈ 30.9 µM); in series [2], 1 µg/mL (≈ 1.93 µM); in [3], 2 µg/mL (≈ 3.86 µM); in series [4], 2 µg/mL (≈ 3.86 µM); in series [5], 1 µg/mL (≈ 1.93 µM); in [7], 4 µg/mL (≈ 7.71 µM). The compound further gave an MIC in series [8] of 2 µg/mL (≈ 3.86 µM). The half-life in [6] is greater than 1000 h.

As for `CC(C)(O/N=C(\C(=O)N[C@@H]1C(=O)N(S(=O)(=O)O)[C@@H]1CNC(=O)CN)c1csc(N)n1)C(=O)O` (stereo in doubt), the MIC in series [1] was 0.5 µg/mL (≈ 0.985 µM); in series [2], 0.25 µg/mL (≈ 0.493 µM); in [3] it was 8 µg/mL (≈ 15.8 µM); in series [4], 4 µg/mL (≈ 7.88 µM); in [5] it was 0.125 µg/mL (≈ 0.246 µM); in [7] it was 2 µg/mL (≈ 3.94 µM). In series [8], the MIC amounted to 0.25 µg/mL (≈ 0.493 µM). Also, in series [6], the half-life was 149 h.

With `CC(C)(O/N=C(\C(=O)N[C@@H]1C(=O)N(S(=O)(=O)O)[C@@H]1CN1CCOC1=O)c1csc(N)n1)C(=O)O` (stereo in doubt), the MIC in [1] was determined as 2 µg/mL (≈ 3.84 µM); in series [2] it was 0.5 µg/mL (≈ 0.961 µM); in series [3] it was 1 µg/mL (≈ 1.92 µM); in series [10], 4 µg/mL (≈ 7.68 µM); in series [4], 0.5 µg/mL (≈ 0.961 µM); in series [5], 0.5 µg/mL (≈ 0.961 µM). The MIC was 2 µg/mL (≈ 3.84 µM) in [7] and 0.5 to 1 µg/mL (≈ 0.961 to 1.92 µM) in [8]. Also, in series [6], the half-life is 483 h.

On to `CC(C)(O/N=C(\C(=O)N[C@@H]1C(=O)N(S(=O)(=O)O)[C@@H]1CN1CCNC1=O)c1csc(N)n1)C(=O)O` (stereo in doubt), for which the MIC in series [1] was determined as 2 µg/mL (≈ 3.85 µM); in series [2] it was 0.5 µg/mL (≈ 0.962 µM); in [3], 1 µg/mL (≈ 1.92 µM); in [4] it was 1 µg/mL (≈ 1.92 µM); in [5], 1 µg/mL (≈ 1.92 µM); in series [7] it was 4 µg/mL (≈ 7.7 µM). The same compound returned an MIC in [8] of 1 µg/mL (≈ 1.92 µM). In series [6], the half-life was greater than 1000 h.

Take `CN(C[C@@H]1[C@H](NC(=O)/C(=N\OC(C)(C)C(=O)O)c2csc(N)n2)C(=O)N1S(=O)(=O)O)C(=O)CN` (stereo in doubt): the MIC in [1] worked out at 16 µg/mL (≈ 30.7 µM); in [2], 4 µg/mL (≈ 7.67 µM); in series [3], 4 µg/mL (≈ 7.67 µM); in series [4], 8 µg/mL (≈ 15.3 µM); in series [5] it was 4 µg/mL (≈ 7.67 µM); in series [8], 4 µg/mL (≈ 7.67 µM). In addition, the half-life in series [6] was 212 h.

Take `Cc1nnn(C[C@@H]2[C@H](NC(=O)/C(=N\OC(C)(C)C(=O)O)c3csc(N)n3)C(=O)N2S(=O)(=O)O)n1` (stereo in doubt): the MIC in [1] is 8 µg/mL (≈ 15.5 µM); in [2], 2 µg/mL (≈ 3.86 µM); in series [3], 8 µg/mL (≈ 15.5 µM); in series [4], 8 µg/mL (≈ 15.5 µM); in series [5], 2 µg/mL (≈ 3.86 µM); in series [7] it was 8 µg/mL (≈ 15.5 µM). Moreover, the MIC in [8] is 1 µg/mL (≈ 1.93 µM).

Take `CC(C)(O/N=C(/C(=O)N[C@@H]1C(=O)N(OS(=O)(=O)O)C1(C)C)c1csc(N)n1)C(=O)O` (stereo in doubt): the MIC was 0.5 µg/mL (≈ 1.07 µM) in series [1]; 0.25 µg/mL (≈ 0.537 µM) in series [2]; greater than 32 µg/mL in series [3]; 0.25 µg/mL (≈ 0.537 µM) in series [4]; 0.25 µg/mL (≈ 0.537 µM) in [5]; 0.25 µg/mL (≈ 0.537 µM) in series [9]. The compound further yielded an MIC in series [8] of 1 µg/mL (≈ 2.15 µM). In series [6], the half-life was 100 h.
